{"source": "patent US11090292B2", "about": "“Compositions and methods of use of an inappetance-controlling compound” (Aratana Therapeutics, Inc., priority 2012, dated 2021)", "key": {"[1]": {"test": "Example 1 seven-day dosing regimen study: food consumption and body weight", "assay_type": "in vivo, Beagle dogs", "protocol": "A controlled, seven-day study was performed to assess the impact of different capromorelin-dosing regimens on the production of insulin-like growth factor 1 (hereinafter “IGF-1”), growth hormone (hereinafter “GH”), and cortisol. The different capromorelin-dosing regimens were also assessed for the impact on food intake and changes in body mass.\nEighteen adult non-naïve Beagle dogs (nine males and nine females) were divided into one of three treatment groups. Each of the three treatment groups included three males and three females. Group A, which was the control group, was dosed twice per day, via oral gavage, with a vehicle (deionized water alone) and was used as a baseline data point for comparison against the active treatment regimens. Group B comprised an active treatment group that received two treatments per day, via oral gavage, with a capromorelin-containing composition with a concentration of 3 mg/kg capromorelin per treatment. Finally, Group C comprised an active treatment group that received one treatment per day, via oral gavage, with a capromorelin-containing composition with a concentration of 6 mg/kg capromorelin per treatment.\n(§1) During the ten day study period, on an at least once-daily basis, each of the dogs was monitored for clinical observations, mortality, morbidity, body mass, and food consumption. Serum samples were taken to measure capromorelin concentration, GH concentration, IGF-1 concentration, and cortisol concentration. Serum samples were taken on days 1, 2, 4, and 7 at −15 minutes (pre-dose), immediately prior to dosing (0 minutes) and 30, 45, 60, 90, 120, 240, 360, and/or 480 minutes post dosing. Additional blood samples were taken at 8 AM on Day 10 of the study to assess long-term impact of the active treatments."}, "[2]": {"test": "Example 1: clinical observations / toxicological responses", "assay_type": "in vivo", "settings": "3 mg/kg twice daily or 6 mg/kg once daily, 7 days", "protocol": "as §1"}, "[3]": {"system": "cortisol", "test": "Example 4: serum cortisol concentration", "assay_type": "in vivo, Beagle dogs", "settings": "approximately 0.5 h post treatment, days 1, 4 and 7", "protocol": "A controlled, seven-day study was performed to assess the impact of different capromorelin-dosing regimens on the production of IGF-1, GH, and cortisol. The different capromorelin-dosing regimens were also assessed for the impact on food intake and changes in body mass.\n[…] were divided into one of three treatment groups, with one negative control group and two active treatment groups. Each of the three treatment groups included three males and three females. The first group received a placebo formulation (i.e., deionized water) twice per day, via oral gavage. The second group received a once-daily dose of the capromorelin composition at a concentration of 3 mg/kg, via oral gavage. The third group received a twice-daily dose of the capromorelin composition at a concentration of 3 mg/kg, via oral gavage.\nas §1, with “moribundity,” for “morbidity,”, “mass, acceptability/palatability,” for “mass,”, “Additional blood samples were taken at 8 AM on Day 10 of the study to assess long-term impact of the active treatments.” left out"}, "[4]": {"test": "Example 4: clinical observations / toxicological responses", "assay_type": "in vivo", "settings": "3 mg/kg once or twice daily, 7 days", "protocol": "as §1, with “moribundity,” for “morbidity,”, “mass, acceptability/palatability,” for “mass,”, “serum” for “blood”"}, "[5]": {"test": "Example 9: capromorelin concentration in serum", "assay_type": "in vivo", "protocol": "(§2) A four-day study was performed to further assess the pharmacokinetics of formulation 8 from Example 3 (i.e., the most “well-accepted” formulation) in cats. Moreover, the administration of formulation 8 was also analyzed to determine if administration of this formulation could induce sustained production of IGF-1 and relatively depressed, mitigated, or lower levels of cortisol. The different capromorelin-dosing regimens were also assessed for the impact on food intake and changes in body mass.\nTwenty-four adult cats were divided into one of four treatment groups, with all four groups as active treatment groups. Each of the active treatment groups included 6 cats. The first group received a sterile injection of a capromorelin composition containing a 0.75 mg/kg concentration of capromorelin once per day during the four-day experiment. The second group received a once-daily sterile injection of a capromorelin composition at a concentration of 2 mg/kg. The third group received a once-daily dose of a capromorelin composition at a concentration of 2 mg/kg, via oral gavage. […]\nDuring the seven day study period, on an at least once-daily basis, each of the cats was monitored for clinical observations, mortality, moribundity, body mass, acceptability/palatability, and food consumption. […]"}, "[6]": {"system": "IGF-1", "test": "Example 9: serum IGF-1 concentration", "assay_type": "in vivo, cats", "protocol": "as §2\nTwenty-four adult cats were divided into one of four treatment groups, with all four groups as active treatment groups. Each of the active treatment groups included 6 cats. The first group received a sterile injection of a capromorelin composition containing a 0.75 mg/kg concentration of capromorelin once per day during the four-day experiment. The second group received a once-daily sterile injection of a capromorelin composition at a concentration of 2 mg/kg. The third group received a once-daily dose of a capromorelin composition at a concentration of 2 mg/kg, via oral gavage. The fourth group received a once-daily dose of a capromorelin composition containing capromorelin at a concentration of 4 mg/kg, via oral gavage.\nDuring the seven day study period, on an at least once-daily basis, each of the cats was monitored for clinical observations, mortality, moribundity, body mass, acceptability/palatability, and food consumption. Serum samples were taken to measure capromorelin concentration, IGF-1 concentration, and cortisol concentration. Serum samples were taken on days 1 and 4 immediately prior to dosing (0 minutes) and 30, 60, 90, 120, 240, 360, and/or 480 minutes post dosing. Additional serum samples were taken at 8 AM on Day 7 of the study to assess long-term impact of the active treatments."}, "[7]": {"system": "IGF-1", "test": "Example 12: serum IGF-1", "assay_type": "in vivo, cats", "settings": "Day 0", "protocol": "Similar to some of the other pharmacokinetic analyses conducted in dogs and cats, an additional pharmacokinetic study was conducted in cats to assess capromorelin formulations that allow sufficient drug to circulate to produce appetite stimulation and to define the capromorelin pharmacokinetic profile in cats. Briefly, twelve cats were randomized into Group 1 (six cats) and Group 2 (six cats). Group 1 received an intravenous formulation that included 0.75 mg/kg of capromorelin dissolved in sterile water and Group 2 received a previously tested formulation via oral gavage. Food consumption was determined daily for all cats. Specifically, animals were offered feed at approximately 11:00 AM, with the removal of feed at approximately 3:00 PM. Upon removal of feed, the amount consumed was calculated. […] Initially, the cats were given a seven day acclimation period to adjust to the experimental conditions and feed provided. After the acclimation period, on Day 0, all animals in Group 1 received an intravenous injection of the composition containing a dose of 0.75 mg/kg of capromorelin. On Day 0, the animals in Group 2 received an oral administration of the formulation via gavage at a dose of 3 mg/kg of capromorelin. […]"}, "[8]": {"settings": "oral gavage, once-daily 6 mg/kg or twice-daily 3 mg/kg, 7 days"}}}
{"smiles": "CN1N=C2CCN(C(=O)[C@@H](COCc3ccccc3)NC(=O)C(C)(C)N)C[C@@]2(Cc2ccccc2)C1=O.O=C(O)C(O)C(O)C(=O)O", "note": "[capromorelin]", "values": [{"measurement": "increase in weight over the seven day treatment period", "setting": "[1]; male dogs, once-daily 6 mg/kg or twice-daily 3 mg/kg oral gavage", "result": "4-5%"}, {"measurement": "food consumed relative to dogs receiving deionized water only", "setting": "[1]; [8]", "result": "consumed more food"}, {"measurement": "weight gain relative to dogs receiving deionized water only", "setting": "[1]; [8]", "result": "gained more weight"}, {"measurement": "toxicological responses", "setting": "[2]", "result": "no toxicological responses were noted"}, {"measurement": "cortisol concentrations in the serum relative to deionized water", "setting": "[3]", "result": "increased"}, {"measurement": "toxicological responses", "setting": "[4]", "result": "no toxicological responses were noted"}, {"measurement": "levels of capromorelin in the serum", "setting": "[5]; oral formulations", "result": "relatively low levels of capromorelin in the serum"}, {"measurement": "time post administration of peak capromorelin concentration in the serum", "setting": "[5]; sterile injectable formulation", "result": "about 0.5 h"}, {"measurement": "increase in serum IGF-1 concentration at eight hours post administration relative to time 0", "setting": "[6]; 0.75 mg/kg sterile injectable, day 1", "result": "approximately 39.8%"}, {"measurement": "increase in serum IGF-1 concentration at eight hours post administration relative to time 0", "setting": "[6]; 0.75 mg/kg sterile injectable, day 4", "result": "approximately 12.2%"}, {"measurement": "increase in serum IGF-1 concentration at eight hours post administration relative to time 0", "setting": "[6]; 2 mg/kg oral, day 1", "result": "approximately 26.6%"}, {"measurement": "increase in serum IGF-1 concentration at eight hours post administration relative to time 0", "setting": "[6]; 2 mg/kg oral, day 4", "result": "approximately 7.6%"}, {"measurement": "increase in serum IGF-1 concentration at eight hours post administration relative to time 0", "setting": "[6]; 2 mg/kg sterile injectable, day 1", "result": "~43.1", "unit": "%"}, {"measurement": "increase in serum IGF-1 concentration at eight hours post administration relative to time 0", "setting": "[6]; 2 mg/kg sterile injectable, day 4", "result": "~10.8", "unit": "%"}, {"measurement": "increase in serum IGF-1 concentration at eight hours post administration relative to time 0", "setting": "[6]; 4 mg/kg oral, day 1", "result": "~30.8", "unit": "%"}, {"measurement": "increase in serum IGF-1 concentration at eight hours post administration relative to time 0", "setting": "[6]; 4 mg/kg oral, day 4", "result": "~0.7", "unit": "%"}, {"measurement": "IGF-1 levels in the serum, Group 1 (IV 0.75 mg/kg) compared to Group 2 (oral 3 mg/kg)", "setting": "[7]", "result": "greater increased in IGF-1 levels"}]}
